For experiment [1], the system named is endotoxin.
For experiment [2], the system named is endotoxin. The source holds these as a separate data set.

Consider `O=S(=O)(O)NCl.[Na]` [Chlorosulfamic acid, sodium monochlorosulfamic acid], for which the “Discharge amount of endotoxin compared to raw water and Control (in words)” value in experiment [1] was “suppress the discharge amount of endotoxin to be low compared to the raw water and Control”. Besides, the “Endotoxin concentration compared to the treatments with chloramine, DBNPA and Cl-MIT alone” value in experiment [2] was at most 50%.

As to `N#CC(Br)(Br)C(N)=O` [DBNPA, 2,2-dibromo-3-nitrilopropionamide, reference compound], the Endotoxin concentration in experiment [2] was 19.1 EU/mL.

In experiment [2], Chloramine [reference compound] gave an Endotoxin concentration of 31.1 EU/mL.

The values above are taken from patent publication US20260193116A1, “MEMBRANE TREATMENT METHOD, BIOFOULING INHIBITION METHOD, AND ENDOTOXIN PRODUCTION INHIBITION METHOD IN WATER SYSTEM” (KURITA WATER INDUSTRIES LTD., priority 2022, published 2026).
